These are literature values, as cited in patent publication US6562243B2 (priority 2001, dated 2003).

For the data set, the system named is Legionella.

Consider `[Ag]` [silver], for which the “silver level that kills Legionella” value was 20 ppb.
